Reference: PubChem BioAssay (NCI)
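Abbreviation: GI50, concentration required for 50% inhibition of growth. TGI is the concentration that stops growth completely.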

Tests used:
Test in all cases: DTP human tumour cell line panel, 384-well format
IGROV1 ovarian = tested on: IGROV1 ovarian
SR leukemia = tested on: SR leukemia
BT-549 breast = tested on: BT-549 breast
CCRF-CEM leukemia = tested on: CCRF-CEM leukemia
EKVX NSCLC = tested on: EKVX NSCLC
CAKI-1 renal = tested on: CAKI-1 renal
HS 578T breast = tested on: HS 578T breast
T-47D breast = tested on: T-47D breast
LOX IMVI melanoma = tested on: LOX IMVI melanoma
SNB-19 CNS = tested on: SNB-19 CNS
U251 glioblastoma = tested on: U251 glioblastoma
HL-60(TB) leukemia = tested on: HL-60(TB) leukemia
NCI-H226 lung = tested on: NCI-H226 lung
OVCAR-3 ovarian = tested on: OVCAR-3 ovarian
DU-145 prostate = tested on: DU-145 prostate
K-562 leukemia = tested on: K-562 leukemia
HOP-62 NSCLC = tested on: HOP-62 NSCLC
HCC-2998 colon = tested on: HCC-2998 colon
PC-3 prostate = tested on: PC-3 prostate
786-0 renal = tested on: 786-0 renal
SF-539 CNS = tested on: SF-539 CNS
SK-MEL-2 melanoma = tested on: SK-MEL-2 melanoma
MDA-MB-435 melanoma = tested on: MDA-MB-435 melanoma
HOP-92 NSCLC = tested on: HOP-92 NSCLC
HCT-116 colon = tested on: HCT-116 colon
TK-10 renal = tested on: TK-10 renal
COLO 205 colon = tested on: COLO 205 colon
NCI-H460 NSCLC = tested on: NCI-H460 NSCLC
ACHN renal = tested on: ACHN renal
M14 melanoma = tested on: M14 melanoma

`COc1cc(-c2ncn(/C=C\C(=O)OC(C)C)n2)cc(C(F)(F)F)c1` showed a TGI (IGROV1 ovarian) of 2090 nM, a GI50 (SR leukemia) of 11 nM and a TGI (SR leukemia) of 23.7 nM. The GI50 (BT-549 breast) was 19 nM, the TGI (BT-549 breast) was 46.5 nM and the GI50 (CCRF-CEM leukemia) was 40.9 nM. It also gave a TGI (CCRF-CEM leukemia) of 182 nM, a GI50 (EKVX NSCLC) of 429 nM and a TGI (EKVX NSCLC) of 6090 nM. For the same molecule, the GI50 (CAKI-1 renal) was 34.7 nM, the TGI (CAKI-1 renal) was 3950 nM and the GI50 (HS 578T breast) was 68.1 nM. It also gave a TGI (HS 578T breast) of 461 nM, a GI50 (T-47D breast) of 229 nM and a TGI (T-47D breast) of 3730 nM. For the same molecule, the GI50 (LOX IMVI melanoma) was 198 nM, the TGI (LOX IMVI melanoma) was 826 nM and the GI50 (SNB-19 CNS) was 444 nM. It also gave a TGI (SNB-19 CNS) of 3150 nM, a GI50 (U251 glioblastoma) of 39.2 nM and a TGI (U251 glioblastoma) of 275 nM. For the same molecule, the GI50 (HL-60(TB) leukemia) was 23.7 nM, the TGI (HL-60(TB) leukemia) was 118 nM and the GI50 (NCI-H226 lung) was 20.8 nM. The TGI (NCI-H226 lung) was 483 nM, the GI50 (OVCAR-3 ovarian) was 26.4 nM and the TGI (OVCAR-3 ovarian) was 151 nM. The GI50 (DU-145 prostate) was 162 nM, the TGI (DU-145 prostate) was 866 nM and the GI50 (K-562 leukemia) was 30.4 nM. It also gave a TGI (K-562 leukemia) of 177 nM, a GI50 (HOP-62 NSCLC) of 291 nM and a TGI (HOP-62 NSCLC) of 1530 nM. The GI50 (HCC-2998 colon) was 89.2 nM, the TGI (HCC-2998 colon) was 838 nM and the GI50 (PC-3 prostate) was 37.4 nM. It also gave a TGI (PC-3 prostate) of 232 nM, a GI50 ([…]-0 renal) of 37.3 nM and a TGI (786-0 renal) of 1200 nM. The GI50 (SF-539 CNS) was 20.5 nM, the TGI (SF-539 CNS) was 71.2 nM and the GI50 (SK-MEL-2 melanoma) was 44.3 nM. For the same molecule, the TGI (SK-MEL-2 melanoma) was 69.5 nM, the GI50 (MDA-MB-435 melanoma) was 43.3 nM and the TGI (MDA-MB-435 melanoma) was 210 nM. It also gave a GI50 (HOP-92 NSCLC) of 69.5 nM, a TGI (HOP-92 NSCLC) of 1550 nM and a GI50 (HCT-116 colon) of 85 nM. For the same molecule, the TGI (HCT-116 colon) was 311 nM, the GI50 (TK-10 renal) was 37.9 nM and the TGI (TK-10 renal) was 1200 nM. For the same molecule, the GI50 (COLO 205 colon) was 48.2 nM, the TGI (COLO 205 colon) was 1260 nM and the GI50 (NCI-H460 NSCLC) was 29.6 nM. It also gave a TGI (NCI-H460 NSCLC) of 163 nM, a GI50 (ACHN renal) of 57.5 nM and a TGI (ACHN renal) of 1500 nM. For the same molecule, the GI50 (M14 melanoma) was 123 nM and the TGI (M14 melanoma) was 382 nM.
